Assay results reported in patent EP1247803A2, “Indolinone compounds suitable for modulation of protein kinases” (Sugen, Inc., priority 1996, dated 1998).

Tests used:
MET = MET biochemical kinase assay; parameters: species or system human; concentration or dose not given beside the values
Description: A met biochemical kinase assay may be performed for met generally as described above for other kinases by substituting that or the other kinases. In particular, ELISA plates are coated with goat anti-rabbit Fc antibodies, which are used to capture commercially available (from Santa Cruz Biotechnology) rabbit polyclonal antibodies to the cytoplasmic domain of human MET. […] The chimeric receptors, or MET, from these lysates are captured on the antibody coated plates. After washing away extraneous proteins, test compounds are added and an in vitro kinase assay is performed by addition of an appropriate kinase buffer (containing ATP, divalent metal ions, etc.). Incorporation of phosphate into the captured receptors is detected with an anti-phosphotyrosine antibody conjugate with horse radish peroxidase using TMB as a substrate for colorimetric detection.

FLK-1 receptor = target: T1, FLK-1 receptor (Mus musculus, UniProt P35918); test: FLK-1 ELISA (kinase activity of the FLK-1 receptor in FLK-1/NIH3T3 cells, VEGF stimulated); type: cell-based
T1 construct: expressed in transfected cells; host or cells: NIH3T3 C7#3
Procedure: An enzyme linked immunosorbent assay (ELISA) was conducted to measure the catalytic activity of the FLK-1 receptor and more specifically, the inhibition or activation of indolinone compounds on the catalytic activity of the FLK-1 receptor. Specifically, the following assay was conducted to measure catalytic activity of the FLK-1 receptor in FLK-1/NIH3T3 cells.
The materials and protocol for the FLK-1 ELISA assay are as described in International Patent Publication No. WO 96/40116, published December 19, 1996 by Tang et al.
Selected compounds were tested in the FLK-1 ELISA assay.
An ELISA assay was conducted to measure the kinase activity of the FLK-1 receptor and more specifically, the inhibition or activation of protein tyrosine kinase activity on the FLK-1 receptor. Specifically, the following assay was conducted to measure kinase activity of the FLK-1 receptor in FLK-1/NIH3T3 cells.
Materials. The following reagents and supplies were used: • a. […] Cappel goat anti-rabbit IgG (catalog no. 55641); • c. PBS (Gibco Catalog No. 450-1300EB); • d. TBSW Buffer (50 mM Tris (pH 7.2), 150 mM NaCl and 0.1% Tween-20); • e. Ethanolamine stock (10% ethanolamine (pH 7.0), stored at 4°C); • f. HNTG buffer (20mM HEPES buffer (pH 7.5), 150mM NaCl, 0.2% Triton X-100, and 10% glycerol); • g. EDTA (0.5 M (pH 7.0) as a 100X stock); • h. Sodium ortho vanadate (0.5 M as a 100X stock); • i. Sodium pyro phosphate (0.2M as a 100X stock); • j. NUNC 96 well V bottom polypropylene plates (Applied Scientific Catalog No. AS-72092); • k. NIH3T3 C7#3 Cells (FLK-1 expressing cells); • l. DMEM with 1X high glucose L Glutamine (catalog No. 11965-050); • m. FBS, Gibco (catalog no. 16000-028); • n. L-glutamine, Gibco (catalog no. 25030-016); • o. VEGF, PeproTech, Inc. (catalog no. 100-20)(kept as 1 µg/100 µl stock in Milli-Q dH2O and stored at -20°C; • p. Affinity purified anti-FLK-1 antiserum which can be obtained or purified as follows: • 1. Prepare a Tresyl-Activated Agarose/Flk-1-D column by incubating 10 ml of Tresyl-Activated Agarose with 20 mg of purified GST-Flk-1-D fusion protein in 100mM sodium bicarbonate (pH 9.6) buffer overnight at 4 °C. • 2. Wash the column once with PBS. • 3. Block the excess sites on the column with 2 M glycine for 2 hours at 4°C. • 4. Wash the column with PBS. • 5. Incubate the column with Rabbit anti-Flk-1D production bleed for 2 hours at 4 °C. • 6. Wash the column with PBS. • 7. Elute antiserum with 100 mM Citric Acid, pH3.0 and neutralize the eluate immediately with 2 M Tris, pH 9.0. • 8. Dialyize the eluate against PBS overnight at 4 °C with 3 changes of buffer (sample to buffer ratio is 1:100). • 9. Adjust the dialyized antiserum to 5% glycerol and store at -80 °C in small aliquotes. • q.
Protocol. The following protocol was used for conducting the assay: • 1. Coat Corning 96-well elisa plates with 1.0µg per well Cappel Anti-rabbit IgG antibody in 0.1M Na2CO3 pH 9.6. Bring final volume to 150 µl per well. Coat plates overnight at 4°C. Plates can be kept up to two weeks when stored at 4°C. • 2. Grow cells in Growth media(DMEM, supplemental with 2.0mM L-Glutamine, 10% FBS) in suitable culture dishes until confluent at 37°C, 5% CO2. • 3. Harvest cells by trypsinization and seed in Corning 25850 polystyrene 96-well roundbottom cell plates, 25.000 cells/well in 200µl of growth media. • 4. Grow cells at least one day at 37°C, 5% CO2. • 5. Wash cells with D-PBS 1X. • 6. Add 200µl/well of starvation media (DMEM, 2.0mM 1-Glutamine, 0.1% FBS). Incubate overnight at 37°C, 5% CO2. • 7. Dilute Compounds/Extracts 1:20 in polypropylene 96 well plates using starvation media. Dilute dimethylsulfoxide 1:20 for use in control wells. • 8. Remove starvation media from 96 well cell culture plates and add 162 µl of fresh starvation media to each well. • 9. Add 18µl of 1:20 diluted Compound/Extract dilution (from step 7) to each well plus the 1:20 dimethylsulfoxide dilution to the control wells (+/- VEGF), for a final dilution of 1:200 after cell stimulation. […]

T1 sequence (P35918 20-1345): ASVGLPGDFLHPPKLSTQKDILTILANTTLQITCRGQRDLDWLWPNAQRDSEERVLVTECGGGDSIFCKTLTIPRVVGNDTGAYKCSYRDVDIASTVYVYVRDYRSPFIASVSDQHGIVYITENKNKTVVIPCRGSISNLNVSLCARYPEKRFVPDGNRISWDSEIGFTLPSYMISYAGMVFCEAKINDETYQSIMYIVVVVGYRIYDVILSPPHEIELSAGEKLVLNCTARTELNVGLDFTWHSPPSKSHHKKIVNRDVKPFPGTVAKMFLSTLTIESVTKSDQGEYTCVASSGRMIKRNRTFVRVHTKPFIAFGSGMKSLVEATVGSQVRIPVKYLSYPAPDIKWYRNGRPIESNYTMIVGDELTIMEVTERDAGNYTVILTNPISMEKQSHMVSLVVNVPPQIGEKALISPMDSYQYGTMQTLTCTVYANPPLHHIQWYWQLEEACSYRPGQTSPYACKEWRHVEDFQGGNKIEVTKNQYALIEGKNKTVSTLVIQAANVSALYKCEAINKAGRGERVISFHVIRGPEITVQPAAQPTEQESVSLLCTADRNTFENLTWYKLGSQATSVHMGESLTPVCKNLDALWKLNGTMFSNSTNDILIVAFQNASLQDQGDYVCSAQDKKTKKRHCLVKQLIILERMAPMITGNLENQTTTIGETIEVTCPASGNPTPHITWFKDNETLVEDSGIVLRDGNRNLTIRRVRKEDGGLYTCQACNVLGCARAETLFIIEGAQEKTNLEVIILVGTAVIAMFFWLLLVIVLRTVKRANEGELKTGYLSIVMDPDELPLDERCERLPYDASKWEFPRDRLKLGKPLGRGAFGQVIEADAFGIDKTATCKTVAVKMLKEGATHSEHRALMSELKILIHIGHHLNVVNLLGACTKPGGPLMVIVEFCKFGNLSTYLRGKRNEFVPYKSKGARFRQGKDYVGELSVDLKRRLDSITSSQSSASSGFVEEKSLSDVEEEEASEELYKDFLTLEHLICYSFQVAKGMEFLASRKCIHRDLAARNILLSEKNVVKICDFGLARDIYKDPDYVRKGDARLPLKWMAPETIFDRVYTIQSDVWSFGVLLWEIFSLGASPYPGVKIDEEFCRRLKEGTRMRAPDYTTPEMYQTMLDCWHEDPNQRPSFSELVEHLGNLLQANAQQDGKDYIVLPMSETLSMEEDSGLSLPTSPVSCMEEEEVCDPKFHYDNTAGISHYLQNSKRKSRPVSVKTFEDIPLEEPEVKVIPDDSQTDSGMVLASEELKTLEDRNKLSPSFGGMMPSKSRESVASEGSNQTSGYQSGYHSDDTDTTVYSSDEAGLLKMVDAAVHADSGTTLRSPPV

SMILES	Met Kinase % Inhibition (MET) [%]	Fik Kinase %Inhibition (FLK-1 receptor) [%]
CNS(=O)(=O)c1ccc2c(c1)C(=Cc1c[nH]c3ccc(OC)cc13)C(=O)N2 [10731/D09]	23.9	6.1
COc1ccc2[nH]cc(C=C3C(=O)Nc4ccc(CCCl)cc43)c2c1 [10731/G09]	4.4	13.3
C=C(C)C1CC=C(C=C2C(=O)Nc3ccc(S(=O)(=O)N4CCOCC4)cc32)CC1 (centres unmarked) [10731/F04]	17.0	24.5
CC(C)c1ccc2occ(C=C3C(=O)Nc4ccc(CCCl)cc43)c(=O)c2c1 [10731/G05]	72.4	17.5
COc1c(Br)cc(C=C2C(=O)Nc3c(Br)cc(Br)cc32)cc1C(C)(C)C [10732/A07]	26.1	-19.8
Cc1ccc2occ(C=C3C(=O)Nc4ccc(S(=O)(=O)N5CCOCC5)cc43)c(=O)c2c1 [10731/F06]	20.9	2.2
CC(C)(C)c1cc(C=C2C(=O)Nc3c(Br)cc(Br)cc32)ccc1OCc1ccccc1 [10732/A06]	5.7	-0.0
CNS(=O)(=O)c1ccc2c(c1)C(=Cc1cc(C(C)C)c(OC)c(C(C)C)c1)C(=O)N2 [10732/D03]	24.9	22.5
COc1ccc2[nH]cc(C=C3C(=O)Nc4ccc(S(=O)(=O)Nc5ccc(C(F)(F)F)cc5)cc43)c2c1 [10731/E09]	27.0	52.5
COc1c(Cl)cc(C=C2C(=O)Nc3c(Br)cc(Br)cc32)cc1C(C)(C)C [10732/A09]	60.3	-11.2
COc1c(C(C)C)cc(C=C2C(=O)Nc3ccc(I)cc32)cc1C(C)C [10732/B03]	58.1	8.2
Cc1c(Br)ccc2c1C(=Cc1cc(Cl)c(OCc3ccccc3)c(C(C)(C)C)c1)C(=O)N2 [10732/C10]	43.0	15.1
Cc1ccc2occ(C=C3C(=O)Nc4ccc(CCCl)cc43)c(=O)c2c1 [10731/G06]	33.3	10.8
CNS(=O)(=O)c1ccc2c(c1)C(=Cc1cc(C(C)C)c(Oc3ccccc3)c(C(C)C)c1)C(=O)N2 [10732/D04]	40.7	24.6
C=C(C)C1CC=C(C=C2C(=O)Nc3ccc(S(=O)(=O)Nc4ccc(C(F)(F)F)cc4)cc32)CC1 (centres unmarked) [10731/E04]	55.6	23.8
Cc1c(Br)ccc2c1C(=Cc1ccc([N+](=O)[O-])o1)C(=O)N2 [10718/C11]	10.1	11.4
Cc1cc2occ(C=C3C(=O)Nc4ccc(S(=O)(=O)N5CCOCC5)cc43)c(=O)c2cc1C [10731/F03]	40.6	7.9
CNS(=O)(=O)c1ccc2c(c1)C(=Cc1cc(Cl)c(OCc3ccccc3)c(C(C)(C)C)c1)C(=O)N2 [10732/D10]	33.1	25.5
COc1c(Br)cc(C=C2C(=O)Nc3ccc(I)cc32)cc1C(C)(C)C [10732/B07]	75.1	1.6

SMILES	Met Kinase % Inhibition (MET) [%]	Fik Kinase %Inhibition (FLK-1 receptor) [%]
C=C(C)C1CC=C(C=C2C(=O)Nc3ccc(CCCl)cc32)CC1 (centres unmarked) [10731/G04]	23.3	14.5
Cc1ccc2occ(C=C3C(=O)Nc4ccc(S(=O)(=O)Nc5ccc(C(F)(F)F)cc5)cc43)c(=O)c2c1 [10731/E06]	37.7	2.6
COc1c(I)cc(C=C2C(=O)Nc3ccc(Br)c(C)c32)cc1C(C)(C)C [10732/C11]	31.9	18.2
CC(C)c1ccc2occ(C=C3C(=O)Nc4ccc(S(=O)(=O)Nc5ccc(C(F)(F)F)cc5)cc43)c(=O)c2c1 [10731/E05]	82.2	7.0
CC(C)(C)c1cc(C=C2C(=O)Nc3c(Br)cc(Br)cc32)cc(Br)c1OCc1ccccc1 [10732/A08]	32.7	-10.0
COc1c(Br)cc(C=C2C(=O)Nc3ccc(Br)c(C)c32)cc1C(C)(C)C [10732/C07]	26.5	15.4
COc1c(C(C)C)cc(C=C2C(=O)Nc3c(Br)cc(Br)cc32)cc1C(C)C [10732/A03]	37.4	-9.9
CNS(=O)(=O)c1ccc2c(c1)C(=C1C(=O)N(C)c3ccccc31)C(=O)N2 [10731/D10]	21.1	13.0
COc1c(Cl)cc(C=C2C(=O)Nc3ccc(I)cc32)cc1C(C)(C)C [10732/B09]	69.2	14.0
CCOC(=O)CCc1c(C(=O)OCC)[nH]c(C=C2C(=O)Nc3ccc(S(=O)(=O)NC)cc32)c1CC(=O)OCC [10718/D05]	10.6	11.5
Cc1c(Br)ccc2c1C(=Cc1cc(Br)c(OCc3ccccc3)c(C(C)(C)C)c1)C(=O)N2 [10732/C08]	54.5	7.6
COc1ccc(C=C2C(=O)Nc3ccc(I)cc32)cc1C(C)(C)C [10732/B05]	71.2	2.8
CC(C)(C)c1cc(C=C2C(=O)Nc3ccc(I)cc32)cc(Br)c1OCc1ccccc1 [10732/B08]	64.4	8.0
CC(C)c1cc(C=C2C(=O)Nc3c(Br)cc(Br)cc32)cc(C(C)C)c1Oc1ccccc1 [10732/A04]	34.8	-14.1
C=C(C)C1CC=C(C=C2C(=O)Nc3ccc(S(=O)(=O)NC)cc32)CC1 (centres unmarked) [10731/D04]	24.5	9.3
Cc1c(Br)ccc2c1C(=Cc1ccc(OCc3ccccc3)c(C(C)(C)C)c1)C(=O)N2 [10732/C06]	21.6	11.8
CC(C)(C)c1cc(C=C2C(=O)Nc3ccc(I)cc32)ccc1OCc1ccccc1 [10732/B06]	74.3	8.1
CCn1c2ccccc2c2cc(C=C3C(=O)Nc4ccc(S(=O)(=O)N5CCOCC5)cc43)ccc21 [10731/F02]	47.5	11.1
